The values that follow come from US20220281841A1, “ETHYNYLHETEROCYCLES AS RHO-ASSOCIATED COILED-COIL KINASE (ROCK) INHIBITORS” (Angion Biomedica Corp., priority 2019, published 2022).

The target in one experiment is T1, ROCK1 (Homo sapiens, UniProt Q13464).
T1 construct: purchased DiscoverX (KINOMEscan KdELECT service); host or cells: E. coli BL21-derived (T7 phage) or HEK-293
Nature of the experiment: ROCK1 kinase binding affinity, DiscoverX KINOMEscan KdELECT. Particulars: equilibrium dissociation constant, 11-point 3-fold dilution series. The procedure:
(§1) 1. ROCK1 and ROCK2 kinase assays: The ROCK1 and ROCK2 kinase binding affinities of compounds in this invention were determined by DiscoverX's KINOMEscan™ KdELECT technology (https://www.discoverx.com/kinomescan-elect-kinase-screening-and-profiling-services): Kinase-tagged T7 phage strains were prepared in an E. coli host derived from the BL21 strain. E. coli were grown to log-phase and infected with T7 phage and incubated with shaking at 32° C. until lysis. The lysates were centrifuged and filtered to remove cell debris. The remaining kinases were produced in HEK-293 cells and subsequently tagged with DNA for qPCR detection. Streptavidin-coated magnetic beads were treated with biotinylated small molecule ligands for 30 minutes at room temperature to generate affinity resins for kinase assays. The liganded beads were blocked with excess biotin and washed with blocking buffer (SeaBlock (Pierce), 1% BSA, 0.05% Tween 20, 1 mM DTT) to remove unbound ligand and to reduce nonspecific binding. […] Test compounds were prepared as 111X stocks in 100% DMSO. Kds were determined using an 11-point 3-fold compound dilution series with three DMSO control points. […] The compounds were then diluted directly into the assays such that the final concentration of DMSO was 0.9%. All reactions performed in polypropylene 384-well plate. Each was a final volume of 0.02 ml. […] The kinase concentration in the eluates was measured by qPCR.

The next experiment deals with T2, ROCK2 (Homo sapiens, UniProt O75116).
T2 construct: purchased DiscoverX (KINOMEscan KdELECT service); host or cells: E. coli BL21-derived (T7 phage) or HEK-293
T2 sequence (O75116 whole entry): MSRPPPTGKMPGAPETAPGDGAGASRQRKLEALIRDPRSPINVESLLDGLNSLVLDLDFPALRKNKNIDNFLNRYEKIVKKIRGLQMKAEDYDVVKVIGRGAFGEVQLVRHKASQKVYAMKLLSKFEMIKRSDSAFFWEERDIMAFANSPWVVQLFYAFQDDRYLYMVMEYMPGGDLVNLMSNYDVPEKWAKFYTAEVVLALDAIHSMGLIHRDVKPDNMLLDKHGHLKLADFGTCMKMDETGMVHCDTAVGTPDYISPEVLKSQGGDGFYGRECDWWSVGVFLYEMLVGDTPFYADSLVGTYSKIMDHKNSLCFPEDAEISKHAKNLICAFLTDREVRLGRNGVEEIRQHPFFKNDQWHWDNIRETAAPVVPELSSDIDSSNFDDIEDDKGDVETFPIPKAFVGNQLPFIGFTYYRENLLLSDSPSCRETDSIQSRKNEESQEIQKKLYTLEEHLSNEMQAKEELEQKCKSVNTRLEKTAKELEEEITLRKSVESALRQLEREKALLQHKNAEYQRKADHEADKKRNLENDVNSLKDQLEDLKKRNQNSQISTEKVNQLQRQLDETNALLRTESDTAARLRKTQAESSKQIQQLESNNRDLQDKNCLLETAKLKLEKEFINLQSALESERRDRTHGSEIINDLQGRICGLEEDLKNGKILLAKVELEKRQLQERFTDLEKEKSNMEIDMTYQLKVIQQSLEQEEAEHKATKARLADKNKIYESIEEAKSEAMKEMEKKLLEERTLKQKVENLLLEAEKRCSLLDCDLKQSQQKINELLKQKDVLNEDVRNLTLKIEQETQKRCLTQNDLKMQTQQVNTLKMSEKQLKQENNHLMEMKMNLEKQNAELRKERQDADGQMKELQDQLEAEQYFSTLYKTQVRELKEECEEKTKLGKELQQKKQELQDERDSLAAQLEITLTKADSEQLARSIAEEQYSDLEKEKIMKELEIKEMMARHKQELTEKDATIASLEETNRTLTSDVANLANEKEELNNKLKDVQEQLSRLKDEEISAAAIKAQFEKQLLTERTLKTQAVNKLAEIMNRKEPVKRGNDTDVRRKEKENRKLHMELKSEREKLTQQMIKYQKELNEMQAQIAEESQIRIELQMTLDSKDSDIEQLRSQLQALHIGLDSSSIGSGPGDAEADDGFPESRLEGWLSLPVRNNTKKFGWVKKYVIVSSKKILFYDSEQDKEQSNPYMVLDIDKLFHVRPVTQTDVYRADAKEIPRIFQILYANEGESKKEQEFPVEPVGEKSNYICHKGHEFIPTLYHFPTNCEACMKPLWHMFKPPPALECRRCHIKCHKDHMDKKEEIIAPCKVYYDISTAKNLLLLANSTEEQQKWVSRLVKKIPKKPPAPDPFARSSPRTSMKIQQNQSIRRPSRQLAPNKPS
Nature of the experiment: ROCK2 kinase binding affinity, DiscoverX KINOMEscan KdELECT. Particulars: for ROCK 2 Selectivity: ROCK2 over ROCK1, from Kd values, N/C = not calculated; for Kd: equilibrium dissociation constant, 11-point 3-fold dilution series, read-out: Kd (μM) ROCK2. The procedure: as §1

Structures can show the parent of a compound that is named as a salt. A value given as a limit tells only on which side of the number the result lay.

T1 sequence (Q13464 whole entry): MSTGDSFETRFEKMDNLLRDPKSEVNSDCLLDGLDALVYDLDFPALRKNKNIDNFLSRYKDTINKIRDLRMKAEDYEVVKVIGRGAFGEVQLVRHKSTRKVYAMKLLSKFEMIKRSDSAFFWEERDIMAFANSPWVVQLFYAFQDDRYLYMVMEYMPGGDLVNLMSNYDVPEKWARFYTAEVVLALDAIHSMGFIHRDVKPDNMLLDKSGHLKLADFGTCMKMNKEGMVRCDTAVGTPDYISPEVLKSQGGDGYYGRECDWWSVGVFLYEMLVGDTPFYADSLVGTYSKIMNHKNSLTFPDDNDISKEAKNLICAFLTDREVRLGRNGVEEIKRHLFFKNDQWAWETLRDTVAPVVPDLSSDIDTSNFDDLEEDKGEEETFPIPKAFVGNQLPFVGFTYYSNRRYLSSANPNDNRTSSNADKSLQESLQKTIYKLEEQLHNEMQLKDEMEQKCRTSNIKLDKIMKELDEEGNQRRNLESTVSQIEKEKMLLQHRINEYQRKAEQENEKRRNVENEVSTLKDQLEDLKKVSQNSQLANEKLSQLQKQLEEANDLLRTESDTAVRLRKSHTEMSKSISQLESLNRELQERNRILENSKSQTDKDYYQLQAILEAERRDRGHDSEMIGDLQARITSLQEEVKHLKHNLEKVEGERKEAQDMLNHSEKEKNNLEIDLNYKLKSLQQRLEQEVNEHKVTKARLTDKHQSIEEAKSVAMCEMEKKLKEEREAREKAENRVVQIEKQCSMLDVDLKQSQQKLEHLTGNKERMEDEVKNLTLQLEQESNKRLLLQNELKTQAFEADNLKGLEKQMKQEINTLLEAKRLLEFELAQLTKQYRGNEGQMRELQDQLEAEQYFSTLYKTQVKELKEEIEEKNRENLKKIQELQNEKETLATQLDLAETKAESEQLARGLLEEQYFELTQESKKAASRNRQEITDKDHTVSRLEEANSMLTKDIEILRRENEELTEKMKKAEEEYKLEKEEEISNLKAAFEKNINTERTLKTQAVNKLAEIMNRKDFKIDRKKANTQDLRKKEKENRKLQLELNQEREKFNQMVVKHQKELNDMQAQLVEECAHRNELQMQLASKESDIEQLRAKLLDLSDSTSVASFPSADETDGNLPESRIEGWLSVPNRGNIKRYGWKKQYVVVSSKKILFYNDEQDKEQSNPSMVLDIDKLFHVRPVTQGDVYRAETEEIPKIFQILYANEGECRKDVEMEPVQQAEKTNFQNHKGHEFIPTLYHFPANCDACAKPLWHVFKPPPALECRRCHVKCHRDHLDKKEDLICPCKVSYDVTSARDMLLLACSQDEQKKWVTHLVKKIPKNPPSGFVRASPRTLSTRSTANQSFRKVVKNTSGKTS

A word on the Kd: it is the free concentration of one partner at which half of the binding sites on the other are occupied at equilibrium, for simple one-to-one binding. In the case of `CN1CCN(c2ccc3c(c2)CN(c2nccc(-c4cccc(C#Cc5ccc6[nH]ncc6c5)n4)n2)C3)CC1` [Ex. 23, 5-((6-(2-(5-(4-Methylpiperazin-1-yl)isoindolin-2-yl)pyrimidin-4-yl)pyridin-2-yl)ethynyl)-1H-indazole], the Kd at ROCK1 was more than 30 µM; at ROCK2 it was 0.66 µM. The “ROCK 2 Selectivity” value on ROCK2 is more than 45.

As for `COc1ccc2c(c1)CN(c1nccc(-c3cc(F)cc(C#Cc4ccc5[nH]ncc5c4)c3)n1)C2` [Ex. 24, 5-((3-Fluoro-5-(2-(5-methoxyisoindolin-2-yl)pyrimidin-4-yl)phenyl)ethynyl)-1H-indazole], the Kd on ROCK1 and on ROCK2 was more than 30 µM throughout.

In the case of `Fc1cc(C#Cc2ccc3[nH]ncc3c2)cc(-c2ccnc(N3Cc4ccc(F)cc4C3)n2)c1` [Ex. 25, 5-((3-Fluoro-5-(2-(5-fluoroisoindolin-2-yl)pyrimidin-4-yl)phenyl)ethynyl)-1H-indazole], the Kd at ROCK1 and on ROCK2 was more than 30 µM throughout.

On to `Fc1cc(C#Cc2ccc3[nH]ncc3c2)cc(-c2ccnc(N3Cc4ccc(Cl)cc4C3)n2)c1` [Ex. 26, 5-((3-(2-(5-Chloroisoindolin-2-yl)pyrimidin-4-yl)-5-fluorophenyl)ethynyl)-1H-indazole], for which, on ROCK1, the Kd is more than 30 µM. On ROCK2, the “ROCK 2 Selectivity” value was more than 6.67 and the Kd worked out at 4.5 µM.

For `Fc1cc(C#Cc2ccc3[nH]ncc3c2)cc(-c2ccnc(N3Cc4ccc(Br)cc4C3)n2)c1` [Ex. 27, 5-((3-(2-(5-Bromoisoindolin-2-yl)pyrimidin-4-yl)-5-fluorophenyl)ethynyl)-1H-indazole], the Kd on ROCK1 and at ROCK2 was more than 30 µM in each case.

For `CN(C)CCOc1ccc2c(c1)CN(c1nccc(-c3cc(F)cc(C#Cc4ccc5[nH]ncc5c4)c3)n1)C2` [Ex. 28, 2-((2-(4-(3-((1H-Indazol-5-yl)ethynyl)-5-fluorophenyl)pyrimidin-2-yl)isoindolin-5-yl)oxy)-N,N-dimethylethanamine], the Kd at ROCK1 and on ROCK2 was more than 30 µM throughout.

On to `CN1CCN(c2ccc3c(c2)CN(c2nccc(-c4cc(F)cc(C#Cc5ccc6[nH]ncc6c5)c4)n2)C3)CC1` [Ex. 29, 5-((3-Fluoro-5-(2-(5-(4-methylpiperazin-1-yl)isoindolin-2-yl)pyrimidin-4-yl)phenyl)ethynyl)-1H-indazole], for which the Kd on ROCK1 and on ROCK2 was more than 30 µM throughout.

For `Brc1ccc2c(c1)CN(c1nccc(-c3nccc(C#Cc4ccc5[nH]ncc5c4)n3)n1)C2` [Ex. 30, 5-((2′-(5-Bromoisoindolin-2-yl)-[2,4′-bipyrimidin]-4-yl)ethynyl)-1H-indazole], the Kd is 0.77 µM at ROCK1 and 0.0058 µM on ROCK2. For the same compound, at ROCK2, the “ROCK 2 Selectivity” value is given as 132.8.

Compound `Fc1ccc2c(c1)CN(c1nccc(-c3nccc(C#Cc4ccc5[nH]nc(F)c5c4)n3)n1)C2` [Ex. 31, 3-Fluoro-5-((2′-(5-fluoroisoindolin-2-yl)-[2,4′-bipyrimidin]-4-yl)ethynyl)-1H-indazole] registered a Kd at ROCK1 of more than 30 µM. Besides, on ROCK2, the “ROCK 2 Selectivity” value is reported as more than 411 and the Kd amounted to 0.073 µM.

`Fc1ccc2c(c1)CN(c1nccc(-c3nccc(C#Cc4cnc5[nH]ncc5c4)n3)n1)C2` [Ex. 32, 5-((2′-(5-Fluoroisoindolin-2-yl)-[2,4′-bipyrimidin]-4-yl)ethynyl)-1H-pyrazolo[3,4-b]pyridine] had a Kd on ROCK1 of more than 30 µM. At ROCK2, the “ROCK 2 Selectivity” value is recorded as more than 103 and the Kd amounted to 0.29 µM.

Take `COc1ccc2c(c1)CN(c1nccc(-c3nccc(C#Cc4cnc5[nH]ncc5c4)n3)n1)C2` [Ex. 33, 5-((2′-(5-Methoxyisoindolin-2-yl)-[2,4′-bipyrimidin]-4-yl)ethynyl)-1H-pyrazolo[3,4-b]pyridine]: the Kd on ROCK1 is more than 30 µM. Further, on ROCK2, the “ROCK 2 Selectivity” value is listed as more than 44.1 and the Kd stood at 0.68 µM.

`Fc1ccc2c(c1)CN(c1ccnc(-c3ccnc(C#Cc4ccc5[nH]ncc5c4)n3)n1)C2` [Ex. 34, 5-((4-(5-Fluoroisoindolin-2-yl)-[2,4′-bipyrimidin]-2′-yl)ethynyl)-1H-indazole]: the Kd on ROCK1 stood at 0.089 µM. In addition, at ROCK2, the “ROCK 2 Selectivity” value is 2.87 and the Kd was determined as 0.031 µM.

With `C(#Cc1ccnc(-c2ccnc(N3Cc4c[nH]nc4C3)n2)n1)c1ccc2[nH]ncc2c1` [Ex. 35, 5-((2′-(2,6-Dihydropyrrolo[3,4-c]pyrazol-5(4H)-yl)-[2,4′-bipyrimidin]-4-yl)ethynyl)-1H-indazole], the Kd is more than 30 µM on ROCK1 and 0.072 µM at ROCK2. Also, at ROCK2, the “ROCK 2 Selectivity” value is on record as more than 417.

Take `COCCN1CCN(c2cc3c(cn2)CN(c2nccc(-c4nccc(C#Cc5ccc6[nH]ncc6c5)n4)n2)C3)CC1` [Ex. 36, 5-((2′-(6-(4-(2-Methoxyethyl)piperazin-1-yl)-1,3-dihydro-2H-pyrrolo[3,4-c]pyridin-2-yl)-[2,4′-bipyrimidin]-4-yl)ethynyl)-1H-indazole trifluoroacetate salt]: binding on ROCK1 was characterised by a dissociation constant (Kd) of 0.069 µM. In addition, on ROCK2, the “ROCK 2 Selectivity” value is listed as 7.26 and the Kd came to 0.0095 µM.

Consider `COCCOc1cc2c(cn1)CN(c1nccc(-c3nccc(C#Cc4ccc5[nH]ncc5c4)n3)n1)C2` [Ex. 37, 5-((2′-(6-(2-Methoxyethoxy)-1,3-dihydro-2H-pyrrolo[3,4-c]pyridin-2-yl)-[2,4′-bipyrimidin]-4-yl)ethynyl)-1H-indazole], for which the Kd at ROCK1 was 5.7 µM; on ROCK2, 0.11 µM. At ROCK2, the “ROCK 2 Selectivity” value was 51.8.

In the case of `CN(C)C(=O)COc1cc2c(cn1)CN(c1nccc(-c3nccc(C#Cc4ccc5[nH]ncc5c4)n3)n1)C2` [Ex. 38, 2-((2-(4-((1H-indazol-5-yl)ethynyl)-[2,4′-bipyrimidin]-2′-yl)-2,3-dihydro-1H-pyrrolo[3,4-c]pyridin-6-yl)oxy)-N,N-dimethylacetamide], the affinity on ROCK1, expressed as Kd, was 2.8 µM. Also, at ROCK2, the “ROCK 2 Selectivity” value was 4.37 and the Kd is 0.64 µM.

Compound `CN(C)CCOc1ccc2c(c1)CN(c1nccc(-c3nccc(C#Cc4ccc5[nH]ncc5c4)n3)n1)C2` [Ex. 39, 2-((2-(4-((1H-Indazol-5-yl)ethynyl)-[2,4′-bipyrimidin]-2′-yl)isoindolin-5-yl)oxy)-N,N-dimethylethanamine] gave a Kd on ROCK1 of 0.67 µM. On ROCK2, the “ROCK 2 Selectivity” value is on record as 25.8 and the Kd was found to be 0.026 µM.

`CN1CCN(c2ccc3c(c2)CN(c2nccc(-c4nccc(C#Cc5ccc6[nH]ncc6c5)n4)n2)C3)CC1` [Ex. 40, 5-((2′-(5-(4-Methylpiperazin-1-yl)isoindolin-2-yl)-[2,4′-bipyrimidin]-4-yl)ethynyl)-1H-indazole] yielded a Kd at ROCK1 of 12 µM. For the same compound, on ROCK2, the “ROCK 2 Selectivity” value is on record as 144 and the Kd stood at 0.083 µM.

Compound `CC1CN(c2ccc3c(c2)CN(c2nccc(-c4nccc(C#Cc5ccc6[nH]ncc6c5)n4)n2)C3)CCO1` (stereo not shown) [Ex. 41, 4-(2-(4-((1H-Indazol-5-yl)ethynyl)-[2,4′-bipyrimidin]-2′-yl)isoindolin-5-yl)-2-methylmorpholine] yielded a Kd on ROCK1 of 1.1 µM. In addition, on ROCK2, the “ROCK 2 Selectivity” value was 45.8 and the Kd was determined as 0.024 µM.

On to `C(#Cc1ccnc(-c2ccnc(N3Cc4ccc(OCCN5CCOCC5)cc4C3)n2)n1)c1ccc2[nH]ncc2c1` [Ex. 42, 4-(2-((2-(4-((1H-Indazol-5-yl)ethynyl)-[2,4′-bipyrimidin]-2′-yl)isoindolin-5-yl)oxy)ethyl)morpholine], for which the Kd on ROCK1 was found to be 0.64 µM; on ROCK2 it was 0.083 µM. For the same compound, on ROCK2, the “ROCK 2 Selectivity” value is listed as 7.71.

The compound `CN(C)C(=O)COc1ccc2c(c1)CN(c1nccc(-c3nccc(C#Cc4ccc5[nH]ncc5c4)n3)n1)C2` [Ex. 43, 2-((2-(4-((1H-Indazol-5-yl)ethynyl)-[2,4′-bipyrimidin]-2′-yl)isoindolin-5-yl)oxy)-N,N-dimethylacetamide] gave a Kd at ROCK1 of more than 30 µM. In addition, on ROCK2, the “ROCK 2 Selectivity” value is recorded as more than 273 and the Kd came out at 0.11 µM.

On to `CNC(=O)COc1ccc2c(c1)CN(c1nccc(-c3nccc(C#Cc4ccc5[nH]ncc5c4)n3)n1)C2` [Ex. 44, 2-((2-(4-((1H-Indazol-5-yl)ethynyl)-[2,4′-bipyrimidin]-2′-yl)isoindolin-5-yl)oxy)-N-methylacetamide], for which the Kd on ROCK1 amounted to 0.075 µM; at ROCK2 it was 0.0023 µM. On ROCK2, the “ROCK 2 Selectivity” value is given as 32.6.

As for `FC(F)(F)c1ccc2c(c1)CN(c1nccc(-c3nccc(C#Cc4ccc5[nH]ncc5c4)n3)n1)C2` [Ex. 45, 5-((2′-(5-(Trifluoromethyl)isoindolin-2-yl)-[2,4′-bipyrimidin]-4-yl)ethynyl)-1H-indazole trifluoroacetate], the Kd on ROCK1 was 0.1 µM; on ROCK2, 0.0011 µM. The “ROCK 2 Selectivity” value at ROCK2 is on record as 90.9.

`O=C(COc1ccc2c(c1)CN(c1nccc(-c3nccc(C#Cc4ccc5[nH]ncc5c4)n3)n1)C2)NC1CC1` [Ex. 46, 2-((2-(4-((1H-Indazol-5-yl)ethynyl)-[2,4′-bipyrimidin]-2′-yl)isoindolin-5-yl)oxy)-N-cyclopropylacetamide trifluoroacetate] returned a Kd on ROCK1 of 0.13 µM. At ROCK2, the “ROCK 2 Selectivity” value was 56.5 and the Kd worked out at 0.0023 µM.
